Assay results from the supplement of paper PMC10307832.

Key:
Assay in all cases: relative viability (nuclei count vs DMSO), 5 days (fraction); higher = more cells survive
ChaGo-K-1 = test system: ChaGo-K-1
In short: (§1)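 Lung cancer cell lines, seeded in 1536-well plates, were treated the following day by pin tool with a single drug or with five library-drug doses (not always all listed) in √10 steps on top of a fixed anchor-drug dose. Cells were fixed and nuclei stained in one step after 5 days, and nuclei were counted. Relative viability is the nuclei count for treated wells divided by that for vehicle wells, reported as medians of duplicate plates.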

HCC-827 = test system: HCC-827
In short: as §1

HCC-78 = test system: HCC-78
In short: as §1

NCI-H2023 = test system: NCI-H2023
In short: as §1

NCI-H1792 = test system: NCI-H1792
In short: as §1

NCI-H727 = test system: NCI-H727
In short: as §1

NCI-H2342 = test system: NCI-H2342
In short: as §1

NCI-H2170 = test system: NCI-H2170
In short: as §1

NCI-H1437 = test system: NCI-H1437
In short: as §1

NCI-H2126 = test system: NCI-H2126
In short: as §1

NCI-H596 = test system: NCI-H596
In short: as §1

LCLC-97TM1 = test system: LCLC-97TM1
In short: as §1

NCI-H2405 = test system: NCI-H2405
In short: as §1

NCI-H1755 = test system: NCI-H1755
In short: as §1

NCI-H2085 = test system: NCI-H2085
In short: as §1

NCI-H441 = test system: NCI-H441
In short: as §1

SK-MES-1 = test system: SK-MES-1
In short: as §1

201T = test system: 201T
In short: as §1

NCI-H650 = test system: NCI-H650
In short: as §1

RERF-LC-KJ = test system: RERF-LC-KJ
In short: as §1

LCLC-103H = test system: LCLC-103H
In short: as §1

LOU-NH91 = test system: LOU-NH91
In short: as §1

COCC1(CO)C(=O)C2CCN1CC2 (stereo not given) [PRIMA-1MET] + O=C(c1cc(Cc2n[nH]c(=O)c3ccccc23)ccc1F)N1CCN(C(=O)C2CC2)CC1 [Olaparib] (partner 8 µM) was tested, and the relative viability (ChaGo-K-1; first compound 0.2 µM) was 0.461, the relative viability (ChaGo-K-1; first compound 0.6325 µM) was 0.407 and the relative viability (ChaGo-K-1; first compound 2 µM) was 0.437. It also gave a relative viability (ChaGo-K-1; first compound 6.325 µM) of 0.426, a relative viability (ChaGo-K-1; first compound 20 µM) of 0.318 and a relative viability (HCC-827; first compound 0.2 µM) of 0.675. It also gave a relative viability (HCC-827; first compound 0.6325 µM) of 0.675, a relative viability (HCC-827; first compound 2 µM) of 0.587 and a relative viability (HCC-827; first compound 6.325 µM) of 0.684. It also gave a relative viability (HCC-827; first compound 20 µM) of 0.627, a relative viability (HCC-78; first compound 0.2 µM) of 1 and a relative viability (HCC-78; first compound 0.6325 µM) of 1.06. It also gave a relative viability (HCC-78; first compound 2 µM) of 0.573, a relative viability (HCC-78; first compound 6.325 µM) of 0.881 and a relative viability (HCC-78; first compound 20 µM) of 0.338. For the same compound, the relative viability (NCI-H2023; first compound 0.2 µM) was 0.576, the relative viability (NCI-H2023; first compound 0.6325 µM) was 0.478 and the relative viability (NCI-H2023; first compound 2 µM) was 0.489. It also gave a relative viability (NCI-H2023; first compound 6.325 µM) of 0.442, a relative viability (NCI-H2023; first compound 20 µM) of 0.29 and a relative viability (NCI-H1792; first compound 0.2 µM) of 0.899. For the same compound, the relative viability (NCI-H1792; first compound 6.325 µM) was 0.444, the relative viability (NCI-H1792; first compound 20 µM) was 0.457 and the relative viability (NCI-H727; first compound 0.2 µM) was 0.6. For the same compound, the relative viability (NCI-H727; first compound 0.6325 µM) was 0.676, the relative viability (NCI-H727; first compound 6.325 µM) was 0.527 and the relative viability (NCI-H727; first compound 20 µM) was 0.47. It also gave a relative viability (NCI-H2342; first compound 0.2 µM) of 0.414, a relative viability (NCI-H2342; first compound 0.6325 µM) of 0.432 and a relative viability (NCI-H2342; first compound 6.325 µM) of 0.395. The relative viability (NCI-H2342; first compound 20 µM) was 0.337, the relative viability (NCI-H2170; first compound 0.2 µM) was 0.608 and the relative viability (NCI-H2170; first compound 0.6325 µM) was 0.539. For the same compound, the relative viability (NCI-H2170; first compound 2 µM) was 0.649, the relative viability (NCI-H2170; first compound 6.325 µM) was 0.684 and the relative viability (NCI-H2170; first compound 20 µM) was 0.622. It also gave a relative viability (NCI-H1437; first compound 0.2 µM) of 0.641, a relative viability (NCI-H1437; first compound 0.6325 µM) of 0.556 and a relative viability (NCI-H1437; first compound 2 µM) of 0.627. It also gave a relative viability (NCI-H1437; first compound 6.325 µM) of 0.65, a relative viability (NCI-H1437; first compound 20 µM) of 0.614 and a relative viability (NCI-H2126; first compound 0.2 µM) of 0.908. For the same compound, the relative viability (NCI-H2126; first compound 0.6325 µM) was 0.861, the relative viability (NCI-H2126; first compound 2 µM) was 0.854 and the relative viability (NCI-H2126; first compound 6.325 µM) was 0.972. It also gave a relative viability (NCI-H2126; first compound 20 µM) of 0.831, a relative viability (NCI-H596; first compound 0.2 µM) of 0.718 and a relative viability (NCI-H596; first compound 0.6325 µM) of 0.652. The relative viability (NCI-H596; first compound 2 µM) was 0.6, the relative viability (NCI-H596; first compound 6.325 µM) was 0.735 and the relative viability (NCI-H596; first compound 20 µM) was 0.238. The relative viability (LCLC-97TM1; first compound 0.2 µM) was 0.45, the relative viability (LCLC-97TM1; first compound 0.6325 µM) was 0.33 and the relative viability (LCLC-97TM1; first compound 2 µM) was 0.461. The relative viability (LCLC-97TM1; first compound 6.325 µM) was 0.347, the relative viability (LCLC-97TM1; first compound 20 µM) was 0.236 and the relative viability (NCI-H2405; first compound 0.2 µM) was 0.947. The relative viability (NCI-H2405; first compound 0.6325 µM) was 0.986, the relative viability (NCI-H2405; first compound 6.325 µM) was 0.88 and the relative viability (NCI-H2405; first compound 20 µM) was 0.167. For the same compound, the relative viability (NCI-H1755; first compound 0.2 µM) was 0.867, the relative viability (NCI-H1755; first compound 0.6325 µM) was 0.904 and the relative viability (NCI-H1755; first compound 2 µM) was 0.782. For the same compound, the relative viability (NCI-H1755; first compound 6.325 µM) was 0.805, the relative viability (NCI-H1755; first compound 20 µM) was 0.817 and the relative viability (NCI-H2085; first compound 0.2 µM) was 0.837. It also gave a relative viability (NCI-H2085; first compound 0.6325 µM) of 0.817, a relative viability (NCI-H2085; first compound 2 µM) of 0.805 and a relative viability (NCI-H2085; first compound 6.325 µM) of 0.862. For the same compound, the relative viability (NCI-H2085; first compound 20 µM) was 0.191, the relative viability (NCI-H441; first compound 0.2 µM) was 0.559 and the relative viability (NCI-H441; first compound 0.6325 µM) was 0.674. The relative viability (NCI-H441; first compound 2 µM) was 0.615, the relative viability (NCI-H441; first compound 6.325 µM) was 0.505 and the relative viability (NCI-H441; first compound 20 µM) was 0.407. The relative viability (SK-MES-1; first compound 0.2 µM) was 0.852, the relative viability (SK-MES-1; first compound 0.6325 µM) was 0.66 and the relative viability (SK-MES-1; first compound 2 µM) was 0.779. For the same compound, the relative viability (SK-MES-1; first compound 6.325 µM) was 0.622, the relative viability (SK-MES-1; first compound 20 µM) was 0.622 and the relative viability (201T; first compound 0.2 µM) was 0.947. For the same compound, the relative viability (201T; first compound 0.6325 µM) was 0.829, the relative viability (201T; first compound 2 µM) was 0.808 and the relative viability (201T; first compound 6.325 µM) was 0.908. For the same compound, the relative viability (201T; first compound 20 µM) was 0.839, the relative viability (NCI-H650; first compound 0.2 µM) was 0.492 and the relative viability (NCI-H650; first compound 0.6325 µM) was 0.453. The relative viability (NCI-H650; first compound 2 µM) was 0.339, the relative viability (NCI-H650; first compound 6.325 µM) was 0.368 and the relative viability (NCI-H650; first compound 20 µM) was 0.187. It also gave a relative viability (RERF-LC-KJ; first compound 0.2 µM) of 0.969, a relative viability (RERF-LC-KJ; first compound 0.6325 µM) of 0.988 and a relative viability (RERF-LC-KJ; first compound 2 µM) of 0.977. For the same compound, the relative viability (RERF-LC-KJ; first compound 6.325 µM) was 1.09, the relative viability (RERF-LC-KJ; first compound 20 µM) was 0.922 and the relative viability (LCLC-103H; first compound 0.2 µM) was 0.841. For the same compound, the relative viability (LCLC-103H; first compound 0.6325 µM) was 0.717, the relative viability (LCLC-103H; first compound 2 µM) was 0.711 and the relative viability (LCLC-103H; first compound 6.325 µM) was 0.8. For the same compound, the relative viability (LCLC-103H; first compound 20 µM) was 0.703, the relative viability (LOU-NH91; first compound 0.2 µM) was 1.02 and the relative viability (LOU-NH91; first compound 0.6325 µM) was 0.911. It also gave a relative viability (LOU-NH91; first compound 2 µM) of 0.866, a relative viability (LOU-NH91; first compound 6.325 µM) of 0.978 and a relative viability (LOU-NH91; first compound 20 µM) of 0.65.
